Measured values taken from patent US11458141B2, “Aryl hydrocarbon receptor (AhR) agonists for the prevention and treatment of inflammatory disorders” (The Johns Hopkins University, priority 2017, dated 2022).
“Also recorded” adds a separate entry of the source.

Assays:
[1] = tested on: Toll-like receptor 4 (Tlr4) mRNA in IEC-6 cells; assay: Tlr4 mRNA and microRNA expression in IEC-6 cells treated with I3C; assay type: cell-based, rat
Description: Rat intestinal epithelial cell line IEC-6 was treated with aryl hydrocarbon receptor (AHR) agonist indole-3-carbinol (13C) for 4 and 6 hours, and then the expression of Toll-like receptor 4 (Tlr4) mRNA and the microRNAs, which have been reported to down-regulate Tlr4 transcription, were quantified, respectively. Referring now to FIG. 22, the mRNA expression of Tlr4 was quantified in IEC-6 cells treated with AHR agonist […] for 6 hours. Data are represented as mean±SEM; *p<0.05 between indicated groups; each dot represents an individual sample. […] Referring now to FIG. 23, the expression of let-7i, miR-223, and miR-146b, which are microRNAs known to inhibit Tlr4 mRNA expression, was quantified in IEC-6 cells treated with AHR agonist […] for 4 hours. Data are represented as mean±SEM; *p<0.05 between indicated groups; each dot represents an individual sample.

[2] = tested on: AHR activation and TLR4 signaling in enteroids; assay: Mouse enteroids: Cypla1 induction and TLR4 signaling; assay type: cell-based; conditions: I3C 200 μM
Description: AHR activation by I3C or breast milk limits TLR4 signaling in the intestinal epithelium (FIG. 14). In seeking to investigate how AHR signaling attenuates NEC severity, whether AHR activation could limit the degree of TLR4 signaling in the gut was investigated. To do so, enteroids were derived from wild-type mice, which are intestinal cultures containing all cell lineages derived from intestinal crypts, as have been described.

mice with NEC [3] = assay: I3C to the pregnant mother (50 mg/kg/day), AHR activation and NEC in the pup; assay type: in vivo, mouse
Description: The administration of the AHR ligand I3C to the pregnant mother prevents NEC in the newborn mouse (FIG. 16). […] Another aspect of the presently disclosed subject matter is to develop a diet rich in AHR ligands that could be administered to the mother, and protect against the development of NEC. […]

AHR signaling pathway = assay: Maternal I3C administration, Cypla1 mRNA in ileum of offspring with NEC; assay type: in vivo, mouse; conditions: mums 25 mg/kg oral gavage E7 to P7
Description: The pups whose mums received 25 mg/kg indole-3-carbinol (13C) by oral gavage starting from the embryonic age 7 (E7) of the fetus until the postnatal day 7 (P7) were included in maternal […]-rich group, while the pups whose mums received vehicle were included in maternal […]-free group. Necrotizing enterocolitis (NEC) was induced in 7-day-old mouse pups by gavage feeding and hypoxia exposure for 4 days. The ileum was harvested at the end of experiment and the mRNA expression of target genes was analyzed by qPCR. Referring now to FIG. 7, the mRNA expression of Cypla1, the down-stream gene of AHR signaling, was quantified in the ileum of experimental NEC models. Data are represented as mean±SEM; *p<0.05 between indicated groups; each dot represents an individual mouse.

mice with NEC [4] = assay: Experimental NEC model in 7-day-old mice (formula gavage, hypoxia, NEC stool bacteria), NEC severity; assay type: in vivo, mouse; conditions: for NEC severity: I3C oral 50 mg/kg/day, 50 mg/kg/day
Description: The development of NEC requires TLR4 signaling in the intestinal epithelium. In seeking to understand the biological underpinnings of NEC, it has been discovered that activation within the intestinal epithelium of the receptor for gram-negative bacteria, namely toll-like receptor 4 (TLR4), is critical for the development of NEC. […] Further, mice that lack TLR4 in the intestinal epithelium (herein referred to as TLR4^ΔIEC mice) or globally (TLR4^−/−) were generated and then subjected to the well validated NEC model at 7 days of age. Mice were gavaged with formula, i.e., Similac Advance infant formula (Abbott Nutrition):Esbilac canince milk replacer (PetAb) in a 2:1 ratio at 50 μL/g every 3 hours, 10 mins hypoxia (5% O2 95% N2 in a Billups-Rothenberg chamber) twice daily for four days, and oral gavage of bacteria (1×10^5 cfu/mL) obtained from the stool of a patient with severe NEC. This experimental protocol induces patchy small intestinal necrosis, intestinal edema, and mucosal disruption very similar to human NEC in wild-type mice (FIG. 10), while mice lacking TLR4 in the intestinal epithelium (TLR4^ΔIEC mice) or globally (TLR4^−/−) were protected from NEC development. Mechanistically, TLR4 activation in the intestinal epithelium leads to an increase in apoptosis and a reduction in proliferation within the intestinal epithelium which leads to mucosal injury (FIG. 11). […]
Another aspect of the presently disclosed subject matter was to identify novel agonists of AHR which could be orally administered to prevent or treat experimental NEC, and which have greater potency and pharmacokinetic properties than the dietary-derived ligand I3C. To do so, an AHR-luciferase screen in intestinal epithelial cells (IEC-6 cells) was developed, then compound libraries were screened, and validation in vitro and in vivo using readouts of AHR activation by measuring the expression of Cyp1 was performed. […]

[5] = I3C 50 mg/kg/d to pregnant mice

OCc1c[nH]c2ccccc12 [I3C, indole-3-carbinol]
expression of let-7i ([1]; 4 hours): significantly increased | expression of miR-146b ([1]; 4 hours): significantly increased | expression of miR-223 ([1]; 4 hours): significantly increased | mRNA expression of Tlr4 ([1]; 6 hours): significantly reduced the expression of Tlr4 mRNA | Cypla1 induction ([2]; enteroids from wild-type mice): significantly induced the downstream molecule Cypla1; also recorded: induces Cypla1 | TLR4 signaling (cytokine/TNF induction) ([2]; enteroids, conditioned media from NEC stool bacteria): reduced TLR4 signaling; also recorded: reduces TNF | NEC severity in the pup (mice with NEC [3]; [5]): significantly reduced NEC severity; also recorded: prevents NEC in the newborn mouse pup | cytokine (IL-6) induction in the pup (mice with NEC [3]; [5]): reduced cytokine induction; also recorded: decreased IL-6 expression | enterocyte apoptosis in the pup (mice with NEC [3]; [5]): reduced enterocyte apoptosis | mucosal injury / histology in the pup (mice with NEC [3]; [5]): reduced; also recorded: improved histology | proliferation in the pup intestinal mucosa (mice with NEC [3]; [5]): improved proliferation | Cypla1 expression in the intestine (AHR activation in utero) (mice with NEC [3]; I3C oral 50 mg/kg/day to the pregnant mother, 50 mg/kg/day): induced the downstream gene Cypla1 in the pup intestine; also recorded: leads to expression of Cypla1 in the intestinal epithelium of both the mother and the fetus | mRNA expression of Cypla1 (AHR signaling) in offspring (AHR signaling pathway): significantly activated the AHR signaling pathway | NEC severity (mice with NEC [4]; AHR-/- mice): but not AHR^−/− mice; also recorded: does not protect | expression of proinflammatory gene IL-1 (mice with NEC [4]; mice afflicted with NEC): reduced the expression of proinflammatory gene IL-1 | NEC severity (mice with NEC [4]; wild-type mice): reduces NEC severity; also recorded: limits NEC severity
